As usually defined, the AC50 is the concentration giving half of the maximal activity seen. As usually defined, the Ki is the equilibrium dissociation constant of an inhibitor or competing ligand from its target. Broadly, the CC50 is the concentration that lowers cell viability or growth by half. What is called EC50 is the concentration needed to bring the measured effect to its halfway point.

Each structure is given as a SMILES string. Calls of active or inactive are those of the source.

Consider 4 compounds from ChEMBL document CHEMBL1201862, “PubChem BioAssay data set” (2004).

Assay [1] concerns the target T1, Lysine-specific demethylase 4C (Homo sapiens, UniProt Q9H3R0).
T1 sequence (Q9H3R0 whole entry): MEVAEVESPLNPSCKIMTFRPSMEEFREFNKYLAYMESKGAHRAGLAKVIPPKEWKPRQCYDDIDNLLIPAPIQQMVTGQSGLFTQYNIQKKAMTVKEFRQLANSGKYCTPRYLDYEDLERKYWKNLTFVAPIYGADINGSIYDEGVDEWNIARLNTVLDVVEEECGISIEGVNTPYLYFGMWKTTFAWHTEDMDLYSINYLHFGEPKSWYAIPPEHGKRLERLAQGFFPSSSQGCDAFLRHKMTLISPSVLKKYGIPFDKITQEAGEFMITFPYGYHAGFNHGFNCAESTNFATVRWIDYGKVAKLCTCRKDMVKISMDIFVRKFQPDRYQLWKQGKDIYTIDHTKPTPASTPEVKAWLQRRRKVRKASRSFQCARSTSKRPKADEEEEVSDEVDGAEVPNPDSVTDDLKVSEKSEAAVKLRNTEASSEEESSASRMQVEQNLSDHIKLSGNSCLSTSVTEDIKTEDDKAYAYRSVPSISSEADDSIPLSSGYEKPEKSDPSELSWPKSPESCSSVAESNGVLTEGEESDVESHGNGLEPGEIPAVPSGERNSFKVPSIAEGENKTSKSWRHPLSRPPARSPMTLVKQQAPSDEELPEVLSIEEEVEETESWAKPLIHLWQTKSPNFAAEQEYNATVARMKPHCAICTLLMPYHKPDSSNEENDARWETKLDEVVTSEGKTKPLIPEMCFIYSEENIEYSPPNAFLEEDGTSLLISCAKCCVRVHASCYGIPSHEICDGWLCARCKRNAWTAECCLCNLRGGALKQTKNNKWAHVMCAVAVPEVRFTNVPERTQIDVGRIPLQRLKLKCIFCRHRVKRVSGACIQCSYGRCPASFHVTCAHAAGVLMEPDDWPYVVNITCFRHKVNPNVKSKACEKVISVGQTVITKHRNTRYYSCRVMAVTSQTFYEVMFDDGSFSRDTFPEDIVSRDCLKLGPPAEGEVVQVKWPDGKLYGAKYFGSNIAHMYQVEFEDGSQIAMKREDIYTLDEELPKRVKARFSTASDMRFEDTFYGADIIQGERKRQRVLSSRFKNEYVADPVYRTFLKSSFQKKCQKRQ
The assay can be described thus: GASC-1 (JMJD2C) histone demethylase inhibitors, dose response, biochemical, DELFIA europium, cherry-picked samples (AID 488835). It is filed as functional.

In assay [2] the target is Focal adhesion kinase 1 (Homo sapiens, UniProt Q05397). It is filed as functional.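 Note: measured as one member of a kinome panel.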
The target of assay [3] is Tyrosine-protein kinase SYK (Homo sapiens, UniProt P43405). It is filed as functional.
Assay [4] deals with HeLa. The assay can be described thus: Cytotoxicity counterscreen assay for transcriptional activators of heat shock protein 70 (Hsp70). [Related pubchem assays: 1203, 1252 ]. It is filed as functional. Particulars: Homo sapiens.
Assay [5] deals with ATP-dependent molecular chaperone HSP82 (Candida albicans (strain WO-1) (Yeast), UniProt C4YTQ8). The assay can be described thus: loss of DOC-induced GRE-beta-galactosidase reporter signal, dose response, Hsp90 inhibitor project, S. cerevisiae, luminescence (AID 2400).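 Note: beta-galactosidase luminescence from glucocorticoid response element reporter as proxy for Hsp90 function; inhibitor potency where signal loss means Hsp90 inhibition.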 It is filed as functional, cell-based.
Assay [6] in a line: inhibitors of SNCA 5'UTR-driven reporter translation, confirmation, H4 neuroglioma cells, luminescence (AID 1988). It is filed as functional, cell-based.
For assay [7], the target named is T2, Hexokinase HKDC1 (Homo sapiens, UniProt Q2TB90).
T2 sequence (Q2TB90 whole entry): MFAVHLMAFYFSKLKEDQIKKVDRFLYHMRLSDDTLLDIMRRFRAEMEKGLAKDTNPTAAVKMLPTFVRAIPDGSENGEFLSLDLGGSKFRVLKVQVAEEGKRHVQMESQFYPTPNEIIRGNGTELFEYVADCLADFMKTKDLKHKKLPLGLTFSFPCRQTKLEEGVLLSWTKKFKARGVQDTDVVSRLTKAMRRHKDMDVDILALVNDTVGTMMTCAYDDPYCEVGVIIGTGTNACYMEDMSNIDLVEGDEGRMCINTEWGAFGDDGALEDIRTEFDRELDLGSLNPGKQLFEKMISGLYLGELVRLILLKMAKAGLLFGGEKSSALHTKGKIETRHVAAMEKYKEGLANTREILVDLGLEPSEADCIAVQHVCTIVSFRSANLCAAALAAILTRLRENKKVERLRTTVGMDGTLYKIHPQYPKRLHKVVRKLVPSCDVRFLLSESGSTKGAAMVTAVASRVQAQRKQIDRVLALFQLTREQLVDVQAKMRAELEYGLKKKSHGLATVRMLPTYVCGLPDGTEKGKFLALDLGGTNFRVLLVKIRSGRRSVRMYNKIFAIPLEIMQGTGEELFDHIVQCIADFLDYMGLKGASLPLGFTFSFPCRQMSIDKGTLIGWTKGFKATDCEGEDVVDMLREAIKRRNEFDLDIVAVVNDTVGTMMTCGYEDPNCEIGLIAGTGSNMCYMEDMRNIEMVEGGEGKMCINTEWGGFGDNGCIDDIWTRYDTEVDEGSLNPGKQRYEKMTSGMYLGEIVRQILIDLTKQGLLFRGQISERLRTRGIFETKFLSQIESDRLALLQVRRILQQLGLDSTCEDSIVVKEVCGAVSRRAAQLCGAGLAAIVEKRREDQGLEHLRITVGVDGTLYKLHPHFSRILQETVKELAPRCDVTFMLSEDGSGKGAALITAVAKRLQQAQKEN
As to the kind of experiment: HKDC1 hexokinase activators, dose response, biochemical, W721R variant (AID 504730). It is filed as functional.

Assay [8] has as its target T3, Serine/threonine-protein phosphatase (Candida dubliniensis (strain CD36 / CBS 7987 / NCPF 3949 / NRRLY-17841) (Yeast), UniProt B9W6M3).
T3 sequence (B9W6M3 whole entry): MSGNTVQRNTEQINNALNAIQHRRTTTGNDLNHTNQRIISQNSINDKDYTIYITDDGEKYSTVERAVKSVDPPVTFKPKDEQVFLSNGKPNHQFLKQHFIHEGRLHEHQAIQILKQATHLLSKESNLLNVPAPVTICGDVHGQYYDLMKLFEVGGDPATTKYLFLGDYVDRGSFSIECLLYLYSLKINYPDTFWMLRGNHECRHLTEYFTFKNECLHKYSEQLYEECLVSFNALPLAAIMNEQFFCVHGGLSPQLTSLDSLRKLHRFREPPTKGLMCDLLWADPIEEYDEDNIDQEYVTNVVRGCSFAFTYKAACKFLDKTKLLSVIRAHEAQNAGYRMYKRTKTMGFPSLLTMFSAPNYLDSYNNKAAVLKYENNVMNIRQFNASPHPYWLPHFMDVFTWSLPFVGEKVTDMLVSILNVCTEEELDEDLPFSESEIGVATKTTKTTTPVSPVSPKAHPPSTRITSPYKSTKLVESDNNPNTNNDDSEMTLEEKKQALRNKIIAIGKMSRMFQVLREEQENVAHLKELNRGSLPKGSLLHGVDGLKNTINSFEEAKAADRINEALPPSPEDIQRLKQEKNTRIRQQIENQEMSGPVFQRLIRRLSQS
As to the kind of experiment: calcineurin pathway inhibitors in yeast reporter, dose response, S. cerevisiae, CDRE-lacZ, luminescence, secondary (AID 2388).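 Note: yeast reporter cells carrying a calcineurin-responsive lacZ construct stimulated with calcium chloride; luminescent beta-galactosidase reporter signal in whole cells rather than isolated phosphatase activity; potency for inhibition where a drop in reporter signal means calcineurin blockade.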 It is filed as functional, cell-based.
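Throughout, for CC50: cells exposed to compound for 16 hours before readout.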

Sequence of Focal adhesion kinase 1 (Q05397 whole entry): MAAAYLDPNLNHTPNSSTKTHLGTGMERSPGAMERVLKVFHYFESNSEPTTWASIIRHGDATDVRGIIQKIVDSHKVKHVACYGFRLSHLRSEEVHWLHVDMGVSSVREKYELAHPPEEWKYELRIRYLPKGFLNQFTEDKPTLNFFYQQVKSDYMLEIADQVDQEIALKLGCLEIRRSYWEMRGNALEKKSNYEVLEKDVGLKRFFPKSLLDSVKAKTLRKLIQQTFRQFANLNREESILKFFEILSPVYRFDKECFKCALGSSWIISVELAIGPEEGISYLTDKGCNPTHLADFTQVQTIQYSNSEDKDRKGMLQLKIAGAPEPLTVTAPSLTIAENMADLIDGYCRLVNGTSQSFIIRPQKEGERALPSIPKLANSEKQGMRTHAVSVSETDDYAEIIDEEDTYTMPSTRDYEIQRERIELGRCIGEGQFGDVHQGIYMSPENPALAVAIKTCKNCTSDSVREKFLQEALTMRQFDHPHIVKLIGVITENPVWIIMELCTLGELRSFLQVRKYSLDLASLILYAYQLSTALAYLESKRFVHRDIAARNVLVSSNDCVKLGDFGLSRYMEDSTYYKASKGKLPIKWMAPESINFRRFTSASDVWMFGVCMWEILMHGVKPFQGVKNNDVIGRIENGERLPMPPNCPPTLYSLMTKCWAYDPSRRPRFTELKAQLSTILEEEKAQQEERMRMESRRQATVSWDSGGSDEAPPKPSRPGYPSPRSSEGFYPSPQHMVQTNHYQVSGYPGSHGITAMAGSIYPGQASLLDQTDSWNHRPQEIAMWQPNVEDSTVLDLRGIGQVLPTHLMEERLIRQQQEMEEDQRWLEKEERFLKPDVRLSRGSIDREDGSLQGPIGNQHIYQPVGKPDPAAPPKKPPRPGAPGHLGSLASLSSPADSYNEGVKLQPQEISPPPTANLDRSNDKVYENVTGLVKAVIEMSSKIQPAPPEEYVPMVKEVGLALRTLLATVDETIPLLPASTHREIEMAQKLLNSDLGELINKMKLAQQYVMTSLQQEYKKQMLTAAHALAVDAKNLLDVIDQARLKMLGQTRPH
Sequence of ATP-dependent molecular chaperone HSP82 (C4YTQ8 whole entry): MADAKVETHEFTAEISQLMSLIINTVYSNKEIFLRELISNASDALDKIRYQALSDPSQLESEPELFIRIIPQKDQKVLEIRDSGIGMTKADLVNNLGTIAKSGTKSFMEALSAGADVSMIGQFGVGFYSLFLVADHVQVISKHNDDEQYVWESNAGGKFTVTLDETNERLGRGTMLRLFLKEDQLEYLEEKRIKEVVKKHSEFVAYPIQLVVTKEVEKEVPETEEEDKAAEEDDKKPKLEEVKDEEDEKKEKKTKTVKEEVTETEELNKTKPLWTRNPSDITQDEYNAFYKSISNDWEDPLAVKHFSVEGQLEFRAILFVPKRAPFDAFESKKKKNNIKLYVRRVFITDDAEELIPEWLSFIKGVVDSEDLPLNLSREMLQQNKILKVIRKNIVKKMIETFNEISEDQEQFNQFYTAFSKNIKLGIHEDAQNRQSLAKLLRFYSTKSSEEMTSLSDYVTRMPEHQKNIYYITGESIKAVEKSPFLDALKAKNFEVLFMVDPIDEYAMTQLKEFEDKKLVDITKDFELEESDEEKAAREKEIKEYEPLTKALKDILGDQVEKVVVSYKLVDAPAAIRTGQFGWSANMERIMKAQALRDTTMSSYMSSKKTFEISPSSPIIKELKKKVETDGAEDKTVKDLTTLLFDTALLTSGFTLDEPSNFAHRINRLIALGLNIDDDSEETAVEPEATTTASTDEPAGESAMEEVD

As for `O=C(Cc1ccccc1Cl)NC1(O)C(=O)c2ccccc2C1=O`, the half-maximal activity concentration (AC50) in assay [1] was 7.1 µM (active).
Turning to `Nc1c(-c2ccc(NC(=O)Nc3cccc(C(F)(F)F)c3)cc2)cnc2c(-c3ccc4c(c3)OCO4)cnn12`, the Ki in assay [2] was > 6.31 µM (inactive).
In the case of `O=C(Nc1cc(-c2c[nH]c3ncccc23)cc(Cl)n1)c1ccccc1`, the Ki in assay [3] was > 1.58 µM (inactive).
With `CCN1C(=Cc2sc3ccccc3[n+]2C)C=Cc2cccc(C)c21`, the CC50 in assay [4] was 1.87 µM (active). Moreover, the EC50 in assay [5] was 37.3 µM (active); in assay [6], < 0.1 µM (active); in assay [7], > 80 µM (inactive); in assay [8], > 180 µM (inactive).
